Results as given in patent US11613531B2, “Inhibitors of RHO associated coiled-coil containing protein kinase” (Kadmon Corporation, LLC, priority 2017, dated 2023).

Test system: Bleomycin induced lung fibrosis in mice
Assay: Therapeutic bleomycin induced lung fibrosis model
Format: in vivo
Text: FIG. 10a. ROCK inhibitor is therapeutically active in a mouse model of pulmonary fibrosis. Representative images of lung sections stained with Masson's trichrome to visualized fibrosis in the lungs of mice following therapeutic treatment with ROCK inhibitor in the bleomycin-induced lung injury model.
FIG. 10b. Quantitation of the decrease in the fibrosis index in the histopathological analysis of the images from ROCK inhibitor and vehicle treated mice in the bleomycin-induced lung injury model.
FIG. 10c. ROCK target engagement analysis in the lung tissue from the bleomycin-induced pulmonary fibrosis model.
Therapeutic Efficacy of Compounds in Bleomycin Induced Lung Fibrosis in Mice
Male C57B/L6 mice were housed for acclimation for no less than 7 days. After acclimation period, animals were randomly assigned to treatment groups. On day 0, mice were anesthetized with 5% isoflurane by inhalation for 10-15 mins and then suspended by their front teeth on a wire attached to a fixed animal operating plate. 50 μL of saline or bleomycin solution was administered via intratracheal instillation. […]
The activity of ROCK inhibitors in attenuating pulmonary fibrosis in a therapeutic dosing setting was assessed in a bleomycin-induced model, following intratracheal bleomycin installation to induce lung tissue damage and consequent fibrosis of the lung. […]
The improvement in the overall lung fibrosis was quantitated for each animal in the control and treatment groups. […]
In addition to the determination of the therapeutic activity of ROCK inhibition in the pulmonary fibrosis model, target engagement and the extent of ROCK inhibition in the lung of drug treated animals were also determined. Protein extracts were prepared from the snap frozen lung samples and separated on SDS-PAGE and analyzed by Western blotting. ROCK kinase direct target, phosphorylated myosin-binding subunit of myosin phosphatase (MYPT, pT853) and a ROCK pathway regulated protein CCN1 expression levels were detected. […] Western blot results were quantitated by the Image J densitometry program. […]

[1] = bleomycin treated mouse lungs, western blot

Clc1cnc(N2C3CCC2CNC3)nc1Nc1ccc2[nH]ncc2c1 [Example 192, N-(2-(3,8-diazabicyclo[3.2.1]octan-8-yl)-5-chloropyrimidin-4-yl)-1H-indazol-5-amine]
CCN1 total protein levels in lung [1]: reduction
phosphorylated MYPT (pT853) levels in lung [1]: reduction
collagen amounts in the lungs (mice, therapeutic dosing from day 7, Masson's trichrome-stained sections): significantly lower
